Measurements reported in article PMC9415161, “PEG-Bottlebrush Stabilizer-Based Worm-like Nanocrystal Micelles with Long-Circulating and Controlled Release for Delivery of a BCR-ABL Inhibitor against Chronic Myeloid Leukemia (CML)” (Pharmaceutics, 2022).
Where two headings read alike, the source gives them in different places.

Key:
K562 cells [1] = assay: In vitro cell toxicity assay (CCK8); type: cell-based; settings: Homo sapiens, K562, 72 h
Protocol: The K562 cell line used in this work was ordered from the American Type Culture Collection (ATCC, Manassas, VA, USA). The K562 cells were cultured in RPMI 1640 with 10% fetal bovine serum (FBS) (VivaCell, Shanghai, China) and 1% penicillin/streptomycin in a humidified incubator at 37 °C with 5% CO2. Firstly, K562 cells were seeded into 96-well plates with 100 μL of 1640 medium containing 3000 cells per well, and were incubated at 37 °C under 5% CO2. Subsequently, the cells in each well were treated with a series of concentrations of free 053 in DMSO, 053-F127 NCs, and 053-PPP NC micelles, respectively. Cell viability was determined using the Cell Counting Kit-8 (CCK8) (Best Bio, Shanghai, China) based on the manufacturer’s instructions. Subsequently, 10 μL of CCK8 solution was added to each well, and the absorbance of each well at a wavelength of 450 nm was measured using a microplate reader (iMARK, Bio-Rad, Hercules, CA, USA) after further incubation for 1 h at 37 °C. The absorbance was normalized and plotted as a function of drug concentration. The GI50 values were calculated using GraphPad Prism 8.0 (San Diego, CA, USA).

[2] = set-up: method as in PMID 26789553; settings: cited from earlier work
K562 xenograft = assay: In vivo anticancer efficacy in K562 xenograft mouse model; set-up: species or system Bal B/c nude mice; settings: 40 mg/kg QD, PO, n = 5
Protocol: Female Bal B/c nude mice were used to establish K562 xenograft mouse models according to the protocol described above. When the tumors reached 150–200 mm^3, the mice were randomly divided into seven groups (n = 5) for the evaluation of antitumor efficacy in vivo at 40 mg/kg: Vehicle, free 053 QD (Once a day, PO), 053-F127 NC QD (IV), 053-F127 NC Q2D (Once every other day, IV), 053-PPP NC QD (IV), 053-PPP NC Q2D (IV), and 053-PPP NC Q4D (once every 4 days, IV). During the treatment, body weight and tumor growth were measured daily. Tumor volumes (V) were calculated as follows (Equation (3)):V (mm^3) = [(W^2 × L)/2],(3) where width (W) and length (L) are defined as the lower and higher of two measurements, respectively. When the tumors of the vehicle group reached the limit of the animal ethical regulations, the test was stopped. All the mice were euthanized, and major tissues/organs were harvested for immunohistochemical (IHC) analysis, including HE, Ki-67, and TUNEL staining.

[3] = set-up: method as in PMID 26789553; settings: 50 mg/kg, P.O.; cited from earlier work
K562 cells [4] = system: K562 cells; set-up: method as in PMID 26789553; settings: against K562 cells; cited from earlier work
[5] = In vivo pharmacokinetics after tail vein injection; settings: male, Sprague-Dawley, rat, plasma, rats, IV 1 mg/kg, n = 3
Protocol: The in vivo profiling of free 053, 053-F127 NCs, and 053-PPP NC micelles were evaluated and compared using PK tests in male Sprague Dawley rats with individual weights of ~200 g (from the Laboratory Animal Center of Anhui Medical University, Hefei, China), approved by the Animal Ethics Committee of Hefei Institutes of Physical Science, Chinese Academy of Sciences, Hefei, China (approval code: DW-2019-20). The rats were housed in an air-conditioned room at 23 ± 2 °C and humidity of ~50%. After acclimatizing the facilities for 1 week, the rats were randomly divided into three groups (three per group): free 053, 053-F127 NC, and 053-PPP NC micelle. The rats were fasted for 12 h prior to drug administration. Free 053 (dissolved in 10% v/v DMSO in glucose 5%), 053-F127 NC, and 053-PPP NC micelle suspensions were administrated by tail vein injection at a dose of 1 mg/kg. Blood samples were collected in heparinized tubes at 2, 5, 15, 30 min and 1, 2, 4, 6, 9, 12, and 24 h (for all three groups). For the 053-PPP NC micelle group, blood was sampled at another three time points of 72, 96, and 120 h. The collected fresh blood samples were immediately processed in accordance with the following protocol: (1) collection of 100 μL of plasma by centrifuging the blood samples for 3 min at 6000 rpm and 4 °C, followed by storage at –80 °C for further analysis; (2) 20 μL of 200 ng/mL of caffeine (as an internal standard solution) was added to 100 μL of each plasma sample; (3) 400 μL of methanol was applied, vortexed for 5 min, and centrifuged at 14,000 rpm for 10 min; (4) the collected supernatants were quantified via LC-MS/MS analysis by loading 5 μL of supernatant. The collected data were analyzed by the non-compartment model using WinNonlin 8.1 software (Pharsight Corporation, Mountain View, CA, USA) to elucidate the PK parameters.

AUC(0-inf) [5]: 509 ± 132 ng·h/mL
AUC(0-t) [5]: 499 ± 132 ng·h/mL
C0 [5]: 555 ± 142 ng/mL
Cmax [5]: 364 ± 42 ng/mL
Tmax [5]: 1.8 min
clearance [5]: 34.3 mL/min/kg
half-life [5]: 2.02 ± 0.42 h
MRT last ([5]; read-out: MRT0–t): 2.54 ± 0.55 h
MRT inf ([5]; read-out: MRT0–∞): 2.78 ± 0.57 h
Vd ([5]; read-out: Vz): 5.87 ± 1.33 L/kg
SMILES: CNc1ncncc1C(=O)Nc1cc(NC(=O)c2cccc(C(F)(F)F)c2)ccc1C [Free 053, N-(2-methyl-5-(3-(trifluoromethyl)benzamido)phenyl)-4-(methylamino)pyrimidine-5-carboxamide]
GI50 (K562 cells [1]): 5.95 ± 1.95 nM
oral bioavailability [2]: ~ 24%
tumor inhibition efficacy compared with the vehicle group (K562 xenograft): did not show a significant difference
TGI [3]: 48.3%
GI50 (K562 cells [4]): ~14 nM
